Data as given in US6613322B2, “Method for treating a subject suffering from conditions associated with an extracellular zinc sphingomyelinase” (The Trustees of Columbia University in the City of New York, priority 1997, dated 2003).

How the values were obtained:
L-SMase = target: T1, L-SMase (Homo sapiens, UniProt P17405); experiment: SMase assay of HUVEC cell homogenate, zinc-dependency; format: biochemical
T1 construct: endogenous in cells; host or cells: HUVEC, sonicated cell homogenate
T1 sequence (P17405 47-631): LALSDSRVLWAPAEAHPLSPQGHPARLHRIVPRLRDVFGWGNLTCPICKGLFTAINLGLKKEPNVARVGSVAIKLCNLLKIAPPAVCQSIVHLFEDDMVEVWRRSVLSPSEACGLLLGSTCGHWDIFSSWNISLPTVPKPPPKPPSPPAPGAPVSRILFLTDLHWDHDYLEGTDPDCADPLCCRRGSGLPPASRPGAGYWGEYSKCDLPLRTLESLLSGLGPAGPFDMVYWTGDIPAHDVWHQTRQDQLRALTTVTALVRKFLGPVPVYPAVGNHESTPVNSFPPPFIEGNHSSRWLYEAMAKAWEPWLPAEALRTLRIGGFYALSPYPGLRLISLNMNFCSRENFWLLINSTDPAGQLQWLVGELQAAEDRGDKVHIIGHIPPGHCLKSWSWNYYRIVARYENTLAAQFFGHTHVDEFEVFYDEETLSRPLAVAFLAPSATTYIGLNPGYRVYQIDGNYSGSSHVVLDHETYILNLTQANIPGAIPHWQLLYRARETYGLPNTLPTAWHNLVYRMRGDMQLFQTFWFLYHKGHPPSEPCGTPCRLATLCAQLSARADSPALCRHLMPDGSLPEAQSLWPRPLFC
Protocol: Smase Assay—As previously described (15), the standard 200-μl assay mixture consisted of up to 40 μl of sample (conditioned media or homogenized cells; see above, and a volume of assay buffer (0.1 M sodium acetate, pH 5.0) to bring the volume to 160 μl. The reaction was initiated by the addition of 40 μl substrate (50 pmol [^3H]sphingomyelin) in 0.25 M sucrose containing 3% Triton X-100 (final concentration of Triton X-100 in the 200-μl assay mix=0.6%). When added, the final concentrations of EDTA and Zn^2+ were 5 mM and 0.1 mM, respectively, unless indicated otherwise. The assay mixtures were incubated at 37° C. for no longer than 3 h and then extracted by the method of Bligh and Dyer (37); the lower, organic phase was harvested, evaporated under N2, and fractionated by TLC using chloroform:methanol (95:5). The ceramide spots were scraped and directly counted to quantify [^3H]ceramide. Typically, our assay reactions contained approximately 20 μg of cellular homogenate protein and a volume of conditioned media derived from a quantity of cells equivalent to approximately 50 μg of cellular protein.

S-SMase of HUVECs = experiment: Immunoblot of S-SMase from conditioned medium of HUVECs; format: cell-based, human; conditions: conditioned medium of IL-1β-treated HUVECs
Protocol: FIG. 26. Immunoblot analysis of L- and S-SMase from control and IL-1β-treated HUVECs. HUVECs were incubated for 18 h in DMEM, 0.2% BSA alone (Con) or containing human recombinant interleukin-1β (5 ng/ml) (IL1β). SMase was partially purified from the cell homogenates and conditioned media of these cells, and then aliquots derived from equivalent numbers of cells were subjected to immunoblot analysis. Specifically, conditioned medium from control and IL-1(-treated cells yielded 256.0 and 262.5 μg of concanavalin A eluate protein, of which 60.8 μg and 60.0 μg aliquots were loaded onto the SDS-PAGGE gel, respectively. Cell homogenates from control and IL-1β-treated cells yielded 168.1 and 160.6 μg of DEAE flow-through protein, of which 59.5 μg and 60.0 μg aliquots were loaded onto the SDS-PAGGE gel, respectively. No band at the molecular weight of L-SMase was visible in conditioned media (right-hand panels), even when overexposed.
Partial Purification of L- and S-SMase from HUVECs—A modification of previously published procedures (39) was used. Cells were scraped in ice-cold 40 mM Tris-HCl, 0.1 mM ZnCl2, 0.1% NP-40, pH 7.2 (Buffer A), disrupted by sonication on ice using three 5-second bursts (Branson 450 Sonifier) and centrifuged at 100,000×g for one hour. […]

Row | increase of enzymatic activity of L-SMase by Zn2+ (L-SMase; L-SMase from IL-1β-treated HUVECs) [fold] | increase of enzymatic activity of L-SMase by Zn2+ (L-SMase; L-SMase from untreated HUVECs) [fold] | increase of higher-Mr S-SMase by densitometry of immunoblot (S-SMase of HUVECs) | Compound
1 | 1.13±0.08 | 1.09±0.04 | – | [Cl-].[Cl-].[Zn+2] [Zn^2+, ZnCl2]
2 | – | – | approximately two-fold | IL-1β: human recombinant interleukin-1β
